From publication PMC12311387, “Proactive Therapeutic Drug MONiToring to Guide Suppressive Antibiotic Therapy with DALBAvaNcin ( > 12 weeks) in Osteoarticular Infections (MONTALBANO)” (Journal of Bone and Joint Infection, 2025)

Key:
[1] = Therapeutic drug monitoring of plasma dalbavancin Cmin (LC-MS/MS) from the fourth dose onward; format: in vivo, human
Method: Included patients received the first three dalbavancin doses on day 1 (T0), day 8 (T1), and day 43 (T2) (Senneville et al., 2023). Subsequent injection timings were personalized and determined using dalbavancin Cmin measured immediately before the dalbavancin administration and maximum plasma concentrations ( Cmax ) measured 30 min after the end of the injection (Fig. 1). Starting from the third dose, Cmin and Cmax values were used in log-linear regression models by plotting logarithmic dalbavancin concentrations with time (Microsoft Excel Software, Microsoft Company, USA) (Cattaneo et al., 2023) to plan the subsequent administration aiming to maintain Cmin levels at ≥8 mg L^−1, as recommended in the recent literature (Cojutti et al., 2021).
Plasma dalbavancin blood samples were assessed using ethylene–diamine–tetraacetic acid (EDTA)-containing Vacutainers®. All samples were centrifuged at 3000 × g and plasma was separated and stored at -20 °C. Dalbavancin quantification was performed through a validated liquid chromatography tandem mass spectrometry method developed and validated according to the EMA guidelines. The analytical process consisted of a fast protein precipitation protocol of 50 µ L of plasma with 400 µ L of precipitation solution (methanol / acetonitrile, 3 / 1), centrifugation at 10 000 × g , 1 : 3 dilutions with water, and analysis. Chromatographic separation was achieved using a gradient (acetonitrile and water with formic acid 0.1 %) on a reversed-phase analytical column (Acquity UPLC BEH C18 1.70 µ m 2.1 × 50 mm; Waters, Milan, Italy). For quantification, analysis was performed in ESI-positive mode by monitoring the transition m/z = 909.45 > 340.2 for dalbavancin. The method was linear from 1 to 500 mg L^−1, with intraday and interday assay imprecision and inaccuracy consistently < 10 % during each analytical run.
The primary outcome was to evaluate the pharmacological efficacy of our proactive TDM-based administration method in maintaining the dalbavancin Cmin level at ≥8 mg L^−1 or ≥4 mg L^−1 taken from the fourth dose onward.
Pharmacological efficacy was defined as the number of instances where Cmin≥8 mg L^−1(or ≥4 mg L^−1) was achieved from the fourth dose onward. […] A tolerance window of up to ±4 d from the calculated injection date was allowed to adapt the model to real-life conditions and improve adherence to the treatment regimen.

Isolated pathogens = assay: MIC of pathogens isolated from the patients; format: cell-based; details: calculated for one patient only
Excerpt: Table 1 Baseline characteristics of the study population.

[2] = 12 PJI patients, 1500 mg day 1, 8, 14 then 1000 mg biweekly from day 28; all Cmin values well above target; ref Söderquist et al., 2024; cited from earlier work
Method: Currently, there is considerable heterogeneity in the use of SAT with dalbavancin for OAIs in both the initial and the maintenance doses. For the latter, some proposed regimens range from 500 mg weekly to 500 mg biweekly to 1000 mg biweekly (Martín et al., 2019; Morata et al., 2019; Wunsch et al., 2019). However, none of these studies employed TDM to assess the pharmacological efficacy of such regimens. Söderquist et al. (2024) recently shared their experience with 12 patients treated with long-term ( >12 weeks) dalbavancin for PJI, according to the Swedish national guidelines and introducing ...

[3] = Safety: monitoring of adverse events, renal toxicity and platelet count; format: in vivo, human; details: patients n=33, treatment >12 weeks
Method: Safety was assessed by monitoring AEs. We defined renal toxicity as a reduction in the estimated glomerular filtration rate (eGFR) to less than 30 mL min^−1/1.73 m^2, accompanied by a decrease of at least 20 % from baseline. A significant reduction in platelet count was considered when the count fell below 100 000 per mm^−3 with a decrease of at least 25 % from baseline.

[4] = cited from earlier work
[5] = test system: osteoarticular infections (OAIs); assay: Clinical effectiveness from chart review in patients with osteoarticular infections; format: in vivo, human
Method: We established effectiveness with an assessment of clinical and microbiological outcomes from chart review detected up to 31 October 2024. If the patient was still on dalbavancin treatment, the clinical outcome was assessed as “ongoing treatment”. Otherwise, the assessment could result in the following: (i) completed therapy with clinical success (absence of failure or relapse at the follow-up); (ii) failure (clinical or microbiological failure with uncontrolled infection during dalbavancin treatment; need for medical interventions for the treated episode in addition to the initial program); (iii) relapse (exacerbation of the clinical condition within 6 months after the end of treatment); (iv) discontinuation of therapy due to AEs; (v) discontinuation of therapy due to new hospitalization for other clinical events; (vi) missing data (insufficient details to assess the outcome; lost at follow-up); (vii) death for infection-related conditions; or (viii) death for non-infection-related conditions.

[6] = only determinations within ±4 d of the date suggested by the model, plasma
[7] = plasma trough determinations from fourth dose onward, 33 OAI patients, TDM-guided dosing, total concentration

## CN[C@H]1C(=O)N[C@@H]2Cc3ccc(cc3)Oc3cc4cc(c3O[C@@H]3O[C@H](C(=O)O)[C@@H](O)[C@H](O)[C@H]3NC(=O)CCCCCCCCC(C)C)Oc3ccc(cc3Cl)[C@@H](O)[C@@H]3NC(=O)[C@H](NC(=O)[C@@H]4NC(=O)[C@@H](NC2=O)c2cc(cc(O)c2Cl)Oc2cc1ccc2O)c1ccc(O)c(c1)-c1c(O[C@H]2O[C@H](CO)[C@@H](O)[C@H](O)[C@@H]2O)cc(O)cc1[C@@H](C(=O)NCCCN(C)C)NC3=O [dalbavancin]
[1]; [6]
  Cmin ≥4 mg L^−1, n (%), Cmin performed at correct timing (n=95): 93 (97.9) n (%)
  Cmin ≥8 mg L^−1, n (%), Cmin performed at correct timing (n=95): 81 (85.3) n (%)
[1]; [7]
  Cmin ≥4 mg L^−1, n (%), Total Cmin (n=118): 114 (96.6) n (%)
  Cmin ≥8 mg L^−1, n (%), Total Cmin (n=118): 93 (78.8) n (%)
Isolated pathogens
  MIC for dalbavancin: < 0.06 µg/mL
[2]
  Cmin: > 8000 ng/mL
[3]
  AEs, n (%): 0 n (%)
  Adverse effects on renal function or platelet count: did not observe any adverse effects on renal function or platelet count
[4]; ref Dunne et al., 2015
  penetration proportion into bone tissue: 13.1%
[4]; ref Rappo et al., 2019a
  half-life: 14.4 days
  total binding protein: 93%
[5]; patients n=33
  Completed therapy with clinical success, n (%): 11 (33.3) n (%)
  Failure, n (%): 1 (3) n (%)
[5]; patients n=33, still on treatment with controlled infection at end of study
  Ongoing, n (%): 18 (54.5) n (%)
[5]; patients n=33, within 6 months after end of treatment
  Relapse, n (%): 3 (9.1) n (%)
